Source: patent US20260216294A1, “BETA 2-ADRENERGIC RECEPTOR AGONISTS FOR TREATMENT OR PREVENTION OF MUSCLE WASTING” (ATROGI AB, priority 2023, published 2026)

Experiments:
[1] = system: L6-myotubes; experiment: Glucose uptake in differentiated L6-myotubes (Biological Example 2); type: cell-based; conditions: glucose uptake in differentiated L6-myotubes, compound at 10 μM, activity relative to isoproterenol at 10 μM; for Emax at 10 µM: read-out: Biological example 2 (GU)
Method in brief: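 Differentiated L6 myotubes were serum-starved overnight in 0.5% fatty-acid-free BSA and then stimulated with compound or isoprenaline at 1×10^−5 M final. After 1 h 40 min cells were washed and re-dosed in glucose-free medium. Twenty minutes later, uptake of 50 nM ^3H-2-deoxyglucose over 10 min was measured by scintillation counting of NaOH lysates.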

[2] = system: L6-myotubes; experiment: Measurement of intracellular cAMP levels in differentiated L6-myotubes (Biological Example 3); type: cell-based; conditions: intracellular cAMP in differentiated L6-myotubes, compound at 10 μM, activity relative to isoproterenol at 10 μM; for Emax at 10 µM: 0.25 h
Method in brief: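 Serum-starved differentiated L6 myotubes stimulated 15 min with test compound at 1×10^−5 M final (isoprenaline as reference) in HBSS with 1% BSA, 5 mM HEPES, 1 mM IBMX, pH 7.4. Cells EtOH-extracted, lysed, and intracellular cAMP measured by AlphaScreen.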

| Structure (SMILES) | Emax at 10 µM [1] [%] | Emax at 10 µM [2] [%] | Biological example 2 (GU) [1] | Biological example 3 (CAMP) [2] |
| --- | --- | --- | --- | --- |
| CC(=O)N(Cc1ccccc1)[C@H]1CC[C@H](C[C@@H]2CC[C@H]([C@@H](O)c3cccc(F)c3)N2)CC1 [Compound 481, N-[(1S,4r)-4-({(2S,5R)-5-[(S)-(m-fluorophenyl) hydroxymethyl]-2-pyrrolidinyl}methyl)cyclohexyl]-N-benzylacetamide] | < 25 | < 25 |  |  |
| CC(=O)N(Cc1ccccc1)[C@H]1CC[C@H](C[C@@H]2CC[C@H]([C@H](O)c3cccc(F)c3)N2)CC1 [Compound 482, N-[(1S,4r)-4-({(2S,5R)-5-[(R)-(m-fluorophenyl) hydroxymethyl]-2-pyrrolidinyl}methyl)cyclohexyl]-N-benzylacetamide] | < 25 | < 25 |  |  |
| CC(=O)N[C@H]1CC[C@@H](C[C@@H]2CC[C@H]([C@@H](O)c3cccc(F)c3)N2)CC1 [Compound 483] | < 25 | < 25 |  |  |
| CC(=O)N[C@H]1CC[C@@H](C[C@@H]2CC[C@H]([C@H](O)c3cccc(F)c3)N2)CC1 [Compound 484] | 50 to 75 | < 25 |  |  |
| CC(=O)N[C@H]1CC[C@H](C[C@@H]2CC[C@H]([C@H](O)c3cccc(F)c3)N2)CC1 [Compound 485] | 50 to 75 | < 25 |  |  |
| CC(=O)N[C@H]1CC[C@H](C[C@@H]2CC[C@H]([C@@H](O)c3cccc(F)c3)N2)CC1 [Compound 486] | 50 to 75 | < 25 |  |  |
| O[C@@H](c1cccc(F)c1)C12CCC(COCc3ccc(OC(F)(F)F)cc3)(CC1)N2 [Compound 487] | < 25 | < 25 |  |  |
| O[C@H](c1cccc(F)c1)C12CCC(COCc3ccc(OC(F)(F)F)cc3)(CC1)N2 [Compound 488] | < 25 | < 25 |  |  |
| O[C@@H](c1cncc(F)c1)C12CCC(COCc3ccc(OC(F)(F)F)cc3)(CC1)N2 [Compound 489, (S)-(5-fluoro-3-pyridyl)(4-{[(p-trifluoromethoxyphenyl)methoxy]methyl}-7-azabicyclo[[2.2.1]]hept-1-yl)methanol] | < 25 | < 25 |  |  |
| O[C@H](c1cncc(F)c1)C12CCC(COCc3ccc(OC(F)(F)F)cc3)(CC1)N2 [Compound 490] | 50 to 75 | < 25 |  |  |
| CC(=O)N(C)[C@H]1CC[C@@H](CC(C)(C)NC[C@H](O)c2cncc(F)c2)CC1 [Compound 492] |  |  | + (if it is between 50 and 25% it is denoted with +) | − (if it less than 25% it is denoted with −) |
| CC(C)(C[C@H]1CC[C@@H](NS(=O)(=O)C(F)(F)F)CC1)NC[C@H](O)c1cccc(F)c1 [Compound 493, (R)-2-{1,1-dimethyl-2-[(1s,4S)-4-(trifluoromesylamino)cyclohexyl]ethylamino}-1-(m-fluorophenyl)-1-ethanol] | 25 to 50 | < 25 |  |  |
| CNS(=O)(=O)[C@H]1CC[C@@H](CC(C)(C)NC[C@H](O)c2cncc(F)c2)CC1 [Compound 495] | 50 to 75 | < 25 |  |  |
| CC(C)(C[C@H]1CC[C@H](NS(=O)(=O)C2CC2)CC1)NC[C@H](O)c1cccc(F)c1 [Compound 496] | 50 to 75 | < 25 |  |  |
| CN([C@H]1CC[C@@H](CC(C)(C)NC[C@H](O)c2cccc(F)c2)CC1)S(C)(=O)=O [Compound 498, (R)-2-{1,1-dimethyl-2-[(1s,4S)-4-(N-mesyl-N-methylamino)cyclohexyl]ethylamino}-1-(m-fluorophenyl)-1-ethanol] | 25 to 50 | < 25 |  |  |
| O[C@H](c1cccc(F)c1)C12CCC(Cc3ccc(OC(F)(F)F)cc3)(CC1)N2 [Compound 500, (S)-(m-fluorophenyl){4-[(p-trifluoromethoxyphenyl)methyl]-7-azabicyclo[[2.2.1]]hept-1-yl}methanol] | < 25 | < 25 |  |  |
| CS(=O)(=O)N(Cc1ccccc1)[C@H]1CC[C@H](C[C@@H]2CC[C@H]([C@H](O)c3cccc(F)c3)N2)CC1 [Compound 502] | < 25 | < 25 |  |  |
| CS(=O)(=O)N(Cc1ccccc1)[C@H]1CC[C@H](C[C@@H]2CC[C@H]([C@@H](O)c3cccc(F)c3)N2)CC1 [Compound 503, (S)-[(2R,5S)-5-({(1r,4S)-4-[(benzyl)-N-mesylamino]cyclohexyl}methyl)-2-pyrrolidinyl](m-fluorophenyl)methanol] | < 25 | < 25 |  |  |

| Structure (SMILES) | Emax at 10 µM [1] [%] | Emax at 10 µM [2] [%] | Biological example 2 (GU) [1] | Biological example 3 (CAMP) [2] |
| --- | --- | --- | --- | --- |
| CS(=O)(=O)N[C@H]1CC[C@H](C[C@@H]2CC[C@H]([C@H](O)c3cccc(F)c3)N2)CC1 [Compound 504] | 50 to 75 | < 25 |  |  |
| CS(=O)(=O)N[C@H]1CC[C@H](C[C@@H]2CC[C@H]([C@@H](O)c3cccc(F)c3)N2)CC1 [Compound 505, (S)-[(2R,5S)-5-{[(1r,4S)-4-(mesylamino)cyclohexyl]methyl}-2-pyrrolidinyl](m-fluorophenyl)methanol] | < 25 | < 25 |  |  |
| CC(=O)N(C)[C@H]1CC[C@H](CC(C)(C)NC[C@H](O)c2cncc(F)c2)CC1 [Compound 506] | > 75 | 25 to 50 |  |  |
| CC(=O)N(C)[C@H]1CC[C@@H](CC(C)(C)NC[C@H](O)c2cncc(F)c2)CC1 [Compound 507] |  | < 25 | ++ (if it is between 75 and 50% it is denoted with ++) |  |
| CS(=O)(=O)N(Cc1ccccc1)[C@H]1CC[C@@H](C[C@@H]2CC[C@H]([C@H](O)c3cccc(F)c3)N2)CC1 [Compound 508, (R)-[(2R,5S)-5-({(1s,4R)-4-[(benzyl)-N-mesylamino]cyclohexyl}methyl)-2-pyrrolidinyl](m-fluorophenyl)methanol] | < 25 | < 25 |  |  |
| CS(=O)(=O)N(Cc1ccccc1)[C@H]1CC[C@@H](C[C@@H]2CC[C@H]([C@@H](O)c3cccc(F)c3)N2)CC1 [Compound 509, (S)-[(2R,5S)-5-({(1s,4R)-4-[(benzyl)-N-mesylamino]cyclohexyl}methyl)-2-pyrrolidinyl](m-fluorophenyl)methanol] | < 25 | < 25 |  |  |
| CS(=O)(=O)N[C@H]1CC[C@@H](C[C@@H]2CC[C@H]([C@H](O)c3cccc(F)c3)N2)CC1 [Compound 510, (R)-[(2R,5S)-5-{[(1s,4R)-4-(mesylamino)cyclohexyl]methyl}-2-pyrrolidinyl](m-fluorophenyl)methanol] | > 75 | < 25 |  |  |
| CS(=O)(=O)N[C@H]1CC[C@@H](C[C@@H]2CC[C@H]([C@@H](O)c3cccc(F)c3)N2)CC1 [Compound 511] | 25 to 50 | < 25 |  |  |
| CS(=O)(=O)N(Cc1ccccc1)c1cccc(CC23CCC([C@@H](O)c4cccc(F)c4)(CC2)N3)c1 [Compound 512] | < 25 | < 25 |  |  |
| CS(=O)(=O)N(Cc1ccccc1)c1cccc(CC23CCC([C@H](O)c4cccc(F)c4)(CC2)N3)c1 [Compound 513] | 25 to 50 | < 25 |  |  |
| CS(=O)(=O)Nc1cccc(CC23CCC([C@@H](O)c4cccc(F)c4)(CC2)N3)c1 [Compound 514, (S)-(m-fluorophenyl)(4-{[m-(mesylamino)phenyl]methyl}-7-azabicyclo[[2.2.1]]hept-1-yl)methanol] | 50 to 75 | < 25 |  |  |
| CS(=O)(=O)Nc1cccc(CC23CCC([C@@H](O)c4cccc(F)c4)(CC2)N3)c1 [Compound 515, (R)-(m-fluorophenyl)(4-{[m-(mesylamino)phenyl]methyl}-7-azabicyclo[[2.2.1]]hept-1-yl)methanol] |  |  | ++ (if it is between 75 and 50% it is denoted with ++) | + (if it is between 50 and 25% it is denoted with +) |
| CC(C)(C[C@H]1CC[C@H](S(N)(=O)=O)CC1)NC[C@H](O)c1cccc(F)c1 [Compound 516, (1R,4r)-4-{2-[(R)-2-(m-fluorophenyl)-2-hydroxyethylamino]-2-methylpropyl} cyclohexanesulfonamide] | > 75 | < 25 |  |  |
| CC(C)(C[C@H]1CC[C@@H](S(N)(=O)=O)CC1)NC[C@H](O)c1cccc(F)c1 [Compound 517, (1S,4s)-4-{2-[(R)-2-(m-fluorophenyl)-2-hydroxyethylamino]-2-methylpropyl} cyclohexanesulfonamide] | 25 to 50 | < 25 |  |  |
| CC(C)(C[C@H]1CC[C@H](S(N)(=O)=O)CC1)NC[C@H](O)c1cncc(F)c1 [Compound 518, (1R,4r)-4-{2-[(R)-2-(5-fluoro-3-pyridyl)-2-hydroxyethylamino]-2-methylpropyl} cyclohexanesulfonamide] | 50 to 75 | < 25 |  |  |
| CC(C)(C[C@H]1CC[C@@H](S(N)(=O)=O)CC1)NC[C@H](O)c1cncc(F)c1 [Compound 519, (1S,4s)-4-{2-[(R)-2-(5-fluoro-3-pyridyl)-2-hydroxyethylamino]-2-methylpropyl} cyclohexanesulfonamide] | > 75 | < 25 |  |  |
| CN([C@H]1CC[C@@H](CC(C)(C)NC[C@H](O)c2cncc(F)c2)CC1)S(C)(=O)=O [Compound 520] | 50 to 75 | < 25 |  |  |
